Experimental data published in patent publication US7368467B2, “Ion channel modulators” (Wyeth, priority 2004, dated 2008).

Key:
[1] = test system: calcium channels (e.g., Cav2.2 subfamily); test: Oocyte assay, calcium channel modulation in Xenopus oocyte heterologous expression system; type: cell-based; conditions: calcium channel (e.g., Cav2.2 subfamily)
Method: Representative compounds of the formulae herein are screened for activity against calcium channel targets in an assay essentially as described in Neuron January 1997, 18(11): 153-166, Lin et. al.; J. Neurosci. Jul. 1, 2000, 20(13):4768-75, J. Pan and D. Lipsombe; and J. Neurosci., Aug. 15, 2001, 21(16):5944-5951, W. Xu and D. Lipscombe, using Xenopus oocyte heterologeous expression system. The assay is performed on various calcium channels (e.g., Cav2.2subfamily) whereby the modulation of the calcium channel is measured for each compound. Table 2 contains IC50's for representative compounds disclosed in the invention.

[2] = test system: calcium channel (e.g., L-type, N-type, etc.); test: HEK assay, whole-cell voltage clamp of calcium channel currents in transiently transfected HEK-293T/17 cells; type: cell-based; conditions: whole-cell patch clamp, holding potential −100 mV, steps to about +10 mV
Method: HEK-293T/17 cells are transiently transfected in a similar manner as described in FuGENE 6 Package Insert Version 7, April 2002, Roche Applied Science, Indianapolis, Ind. The cells are plated at 2.5×10^5 cells in 2 mL in a 6-well plate in incubator for one night and achieve a 30˜40% confluence. In a small sterile tube, add sufficient serum-free medium as diluent for FuGENE Transfection Reagent (Roche Applied Science, Indianapolis, Ind.), to a total volume of 100 μL. Add 3 μL of FuGENE 6 Reagent directly into this medium. The mixture is tapped gently to mix. 2 μg of DNA solution (0.8-2.0 μg/μL) is added to the prediluted FuGENE 6 Reagent from above. The DNA/Fugene 6 mixture is gently pipeted to mix the contents and incubated for about 15 minutes at room temperature. The complex mixture is then added to the HEK-293T/17 cells, distributing it around the well, and swirled to ensure even dispersal. The cells are returned to the incubator for 24 hrs. The transfected cells are then replated at density 2.5×10^5 in a 35 mm dish with 5 glass coverslips and grow in low serum(1%) media for 24 hrs. Coverslips with isolated cells are then transferred into chamber and calcium channel (e.g., L-type, N-type, etc.) current or other currents for counter screening are recorded from the transiently transfected HEK-293T/1 7 cells.
The whole-cell voltage clamp configuration of the patch clamp technique is employed to evaluate voltage-dependent calcium currents essentially as described by Thompson and Wong (1991) J. Physiol., 439: 671-689. To record calcium channel (e.g., L-type, N-type, etc.) currents for evaluation of inhibitory potency of compounds (steady-state concentration-response analysis), five pulses of 20-30 ms voltage steps to about +10 mV (the peak of the current voltage relationship) are delivered at five Hz every 30 second from a holding potential at −100 mV. Compound evaluations were carried out essentially as described by Sah D W and Bean B P (1994) Mol Pharmacol. 45(1):84-92. Table 3 contains IC50's for representative compounds.

IC50 [1] | IC50 [2] | SMILES
6.63 µM |  | Cc1ccc(-n2c(-c3ccccc3)cnc2SCc2nc3ccccc3[nH]2)cc1 [Compound 2]
5.7 µM |  | Cc1ccc(-n2c(-c3ccc(F)cc3)cnc2SCc2nc3ccccc3[nH]2)cc1 [Compound 4]
 | 0.793 µM | COc1ccc(OC)c(-c2cnc(SCc3nc4ccccc4[nH]3)n2-c2ccc(Cl)cc2)c1 [Compound 7]
 | 0.187 µM | COc1ccccc1-c1cnc(SCc2cnc(C)s2)n1-c1ccc(Cl)cc1 [Compound 8]
 | 0.328 µM | Cc1ccc(F)cc1-c1cnc(SCc2nc3ccccc3[nH]2)n1-c1ccc(Cl)cc1 [Compound 13]
5.4 µM |  | COc1ccc(-n2c(-c3ccc(F)cc3)cnc2SCC(=O)NCc2ccco2)cc1 [Compound 234]
